Results published in patent US6831199B1, “Pyrimidine compounds and derivatives thereof” (G. D. Searle & Co., priority 1995, dated 2004).
pIC50: −log10 of the molar value. Counter-ions that a name gives are not always drawn. Like-named read-outs stand apart in the source and are kept apart here.

Columns and labels:
[1] = target: T1, Human vitronectin receptor (αvβ3) (Homo sapiens, UniProt P05106+P06756); assay: Vitronectin adhesion assay (solid phase receptor assay, competition with biotinylated vitronectin); assay type: binding; details: read-out: AvB3 IC50
T1 construct: Human vitronectin receptor (αvβ3) was purified from human placenta; from tissue; host or cells: human placenta
Outline: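 Purified human αvβ3 coated overnight at 4 °C in TBS with 1.0 mM Ca++, Mg++, Mn++, pH 7.4; compounds (top final 1.0×10^−4 M) competed with 1 nM biotinylated vitronectin for 2 h at room temperature. Bound ligand detected by HRP anti-biotin/OPD at A450; values normalized to no-competitor controls, four-parameter curve fit.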

[2] = target: T2, Human fibrinogen receptor (αIIbβ3) (Homo sapiens, UniProt P05106+P08514); assay: Purified IIb/IIIa receptor assay (solid phase receptor assay, competition with biotinylated vitronectin); assay type: binding; details: read-out: IIb/IIIa IC50
T2 construct: Human fibrinogen receptor (αIIbβ3) was purified from outdated platelets; from tissue; host or cells: outdated human platelets
Outline: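 Competition format: 1 nM biotinylated vitronectin plus test compound (highest 1.0×10^−4 M), 2 h at room temperature on wells coated with platelet-derived αIIbβ3. Buffer was TBS containing 1.0 mM Ca, Mg, Mn, pH 7.4. HRP anti-biotin readout at 450 nm; normalized to maximum binding, four-parameter curve fit.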

[3] = system: platelet rich plasma; assay: Human platelet rich plasma assay (ADP induced platelet aggregation); assay type: cell-based; details: read-out: Human PRP
Procedure: Human Platelet Rich Plasma Assays
Healthy aspirin free donors were selected from a pool of volunteers. The harvesting of platelet rich plasma and subsequent ADP induced platelet aggregation assays were performed as described in Zucker, M. B., “Platelet Aggregation Measured by the Photometric Method”, Methods in Enzymology 169(1989):117-133. Standard venipuncture techniques using a butterfly allowed the withdrawal of 45 mL of whole blood into a 60 mL syringe containing 5 mL of 3.8% trisodium citrate. Following thorough mixing in the syringe, the anti-coagulated whole blood was transferred to a 50 mL conical polyethylene tube. The blood was centrifuged at room temperature for 12 minutes at 200×g to sediment non-platelet cells. Platelet rich plasma was removed to a polyethylene tube and stored at room temperature until used. Platelet poor plasma was obtained from a second centrifugation of the remaining blood at 2000×g for 15 minutes. Platelet counts are typically 300,000 to 500,000 per microliter. Platelet rich plasma (0.45 mL) was aliquoted into siliconized cuvettes and stirred (1100 rpm) at 37° C. for 1 minute prior to adding 50 uL of pre-diluted test compound. After 1 minute of mixing, aggregation was initiated by the addition of 50 uL of 200 uM ADP. Aggregation was recorded for 3 minutes in a Payton dual channel aggregometer (Payton Scientific, Buffalo, N.Y.). The percent inhibition of maximal response (saline control) for a series of test compound dilutions was used to determine a dose response curve.

[4] = Homo sapiens, Platelet, ADP induced platelet aggregation in human platelet rich plasma

Molecule | pIC50 [1] | pIC50 [2] | pIC50 [3, 4] | pIC50 ([3]; ADP induced platelet aggregation in human platelet rich plasma) | pIC50 ([3]; Homo sapiens, Platelet)
CN/C(=N\C#N)Nc1cccc(C(=O)NCC(=O)NC(CC(=O)O)c2ccccc2)c1 (stereo not drawn) [Example 137, β-[[2-[[[3-[[(cyanoimino)(methylamino)methyl]amino]phenyl]carbonyl]amino]acetyl]amino]benzenepropanoic acid] | 7.79 | 5.19 | < 3.70 |  | 
O=C(O)CC(NC(=O)CNC(=O)c1cccc(NC(=O)NCCc2ccccc2)c1)c1cccnc1 (stereo not drawn) [Example 130, β-[[2-[[[3-[[[(2-phenylethyl)amino]carbonyl]amino]phenyl]carbonyl]amino]acetyl]amino]pyridine-3-propanoic acid, trifluoroacetate salt] | 7.33 | 5.57 | < 3.70 |  | 
O=C(O)CC(NC(=O)CNC(=O)c1cccc(NC2=NCCCN2)c1)c1cc(Cl)cc(Cl)c1 (racemic) [Example 200, (±)3,5-dichloro-β-[[2-[[[3-[(1,4,5,6-tetrahydropyrimidin-2-yl)amino]phenyl]carbonyl]amino]acetyl]amino]benzenepropanoic acid, trifluoroacetate salt] | 9.32 | 5.96 | < 3.70 |  | 
3S-[[2-[[[3-[(aminoiminomethyl)amino]phenyl]carbonyl]amino]acetyl]amino]-4-hydroxybutanoic acid [Example 86] | 8.06 | 6.61 |  | < 3.70 | 
N=C(N)Nc1cccc(C(=O)NCC(=O)NC(CC(=O)O)c2cc(Cl)cc(Cl)c2O)c1 (racemic) [Example 225, (±)β-[[2-[[[3-[(aminoiminomethyl)amino]phenyl]carbonyl]amino]acetyl]amino]-3,5-dichloro-2-hydroxybenzenepropanoic acid, trifluoroacetate salt, monohydrate] | 8.56 | 6.33 | < 4.70 |  | 
O=C(O)CC(NC(=O)CNC(=O)c1cccc(NC(=O)NCc2ccccc2)c1)c1ccc2c(c1)OCO2 (stereo not drawn) [Example 122, β-[[2-[[[3-[[[(phenylmethyl)amino]carbonyl]amino]phenyl]carbonyl]amino]acetyl]amino]-1,3-benzodioxole-5-propanoic acid] | 9.10 | 6.38 |  |  | < 4.70
C#C[C@H](CC(=O)O)NC(=O)CNC(=O)c1cccc(NC(N)=O)c1 [Example 40, 3S-[[2-[[[3-(aminocarbonylamino)phenyl]carbonyl]amino]acetyl]amino]-4-pentynoic acid] | 7.99 | 6.08 | < 3.70 |  | 
O=C(O)CC(NC(=O)CNC(=O)c1cccc(NC(=O)NCc2cccc3ccccc23)c1)c1cccnc1 (stereo not drawn) [Example 131, β-[[2-[[[3-[[[(1-naphthalenylmethyl)amino]carbonyl]amino]phenyl]carbonyl]amino]acetyl]amino]pyridine-3-propanoic acid, trifluoroacetate salt] | 8.42 | 5.75 | < 4.70 |  | 
CN(CC(=O)NC(CC(=O)O)c1cccnc1)C(=O)c1cccc(NC(=N)N)c1 (racemic) [Example 80, (±)β-[[2-[[[3-[(aminoiminomethyl)amino]phenyl]carbonyl]methylamino]acetyl]amino]pyridine-3-propanoic acid, bis(trifluoroacetate)salt] | 8.02 | 8.36 | 4.52 |  | 
CCN/C(=N\C#N)Nc1cccc(C(=O)NCC(=O)NC(CC(=O)O)c2ccccc2)c1 (stereo not drawn) [Example 139, β-[[2-[[[3-[[(cyanoimino)(ethylamino)methyl]amino]phenyl]carbonyl]amino]acetyl]amino]benzenepropanoic acid] | 7.62 | 4.79 | < 3.70 |  | 
N=C(N)Nc1cc(C(=O)NCC(=O)NC(CC(=O)O)c2cc(C(F)(F)F)cc(C(F)(F)F)c2)cc(C(F)(F)F)c1 (racemic) [Example 39, (±)β-[[(2-[[[3-[(aminoiminomethyl)amino]-5-(trifluoromethyl)phenyl]carbonyl]amino]acetyl]amino]-3,5-bis(trifluoromethyl)benzenepropanoic acid, trifluoroacetate salt] | 7.91 | 5.81 | < 4.70 |  | 
N=C(N)Nc1cccc(C(=O)NCC(=O)NC(CC(=O)O)CC(=O)O)c1 [Example 53, 3-[[2-[[[3-[(aminoiminomethyl)amino]phenyl]carbonyl]amino]acetyl]amino]pentanedioic acid, trifluoroacetate salt] | 7.26 | 6.03 | < 3.70 |  | 
O=C(O)CC(NC(=O)CNC(=O)c1cccc(NC2=NCCN2)c1)c1cc(Cl)cc(Cl)c1 (racemic) [Example 191, (±)β-[[2-[[[3-[(4,5-dihydro-1H-imidazol-2-yl)amino]phenyl]carbonyl]amino]acetyl]amino]-3,5-dichlorobenzenepropanoic acid, trifluoroacetate salt] | 9.31 | 7.15 | < 4.70 |  | 
N=C(N)Nc1cc(C(=O)NCC(=O)NC(CC(=O)O)c2ccccc2)ccc1Cl (stereo not drawn) [Example 150, β-[[2-[[[3-[(aminoiminomethyl)amino]-4-chlorophenyl)carbonyl]amino]acetyl]amino]benzenepropanoic acid] | 8.24 | 6.20 | < 3.70 |  | 
O=C(O)CC(NC(=O)CNC(=O)c1cccc(NC(=O)Nc2ccccc2)c1)c1ccc2c(c1)OCO2 (stereo not drawn) [Example 124, β-[[2-[[[3-3-[[(phenylamino]carbonyl]amino]phenyl]carbonyl]amino]acetyl]amino]-1,3-benzodioxole-5-propanoic acid] | 7.66 | 6.50 | < 4.70 |  | 
N=C(N)Nc1cccc(C(=O)NCC(=O)N[C@H](CSc2ccccc2C(=O)O)CC(=O)O)c1 [Example 72, 2-[[2S-[[2-[[[3-[(aminoiminomethyl)amino]phenyl]carbonyl]amino]acetyl]amino]-2-(carboxymethyl)ethyl]thio]benzoic acid, trifluoroacetate salt] | 8.92 | 6.82 | < 3.70 |  | 
N=C(N)Nc1cccc(C(=O)NCC(=O)NC(CC(=O)O)c2ccco2)c1 (racemic) [Example 55, (±)β-[[2-[[[3-[(aminoiminomethyl)amino]phenyl]carbonyl]amino]acetyl]amino]furan-2-propanoic acid, trifluoroacetate salt] | 8.32 | 6.93 | < 3.70 |  | 
O=C(O)CCNC(=O)Nc1cccc(C(=O)NCC(=O)NC(CC(=O)O)c2cccnc2)c1 (stereo not drawn) [Example 129, β-[[2-[[[3-[[[(2-carboxyethyl)amino]carbonyl]aminophenyl]carbonyl]amino]acetyl]amino]pyridine-3-propanoic acid, trifluoroacetate salt] | 7.16 | 5.02 | < 3.70 |  | 
NS(=O)(=O)c1ccc(CNC(=O)Nc2cccc(C(=O)NCC(=O)NC(CC(=O)O)c3cccnc3)c2)cc1 (stereo not drawn) [Example 126, β-[[2-[[[3-[[[[(4-(aminosulfonyl)phenylmethyl]amino]carbonyl]amino]phenyl]carbonyl]amino]acetyl]amino]pyridine-3-propanoic acid, trifluoroacetate salt] | 8.61 | 5.70 | < 3.70 |  | 
C#C[C@H](CC(=O)O)NC(=O)CNC(=O)c1cccc(N/C(=N/C#N)NC)c1 [Example 141, 3S-[[2-[[[3-[[(cyanoimino)(methylamino)methyl]amino]phenyl]carbonyl]amino]acetyl]amino]-4-pentynoic acid] | 8.51 | 6.90 | < 3.70 |  | 
